From article PMC11882969 (Nature Communications, 2025)
Values joined by “and” are separate entries in the source; they are usually repeats but may differ in a detail not shown here. Identical values can stand only once. Like-named read-outs stand apart in the source and are kept apart here.

Legend:
CB1 (rCB1) = CB1 (rCB1) (Rattus norvegicus, UniProt P20272); assay: Single-point radioligand displacement screen; type: binding; conditions: for % 1H-CP-55,940 displacement (mean) from single point screen: 10 µM, 1 µM or 300 nM by cell colour (not visible); for rep1_displacement / rep2_displacement / rep3_displacement: Figure 1c source data; for rep1_displacement: replicate 1; for rep2_displacement: replicate 2; for rep3_displacement: replicate 3
hCB1 = hCB1 (Homo sapiens, UniProt P21554); assay: bioSensAll ebBRET signaling profiling, hCB1; type: cell-based; set-up: host or cells: HEK293SL cells, transient PEI transfection; conditions: for Gi1 hCB1 response: Gi1 biosensor; for Gi1 hCB1 / GoB hCB1: single replicate values, FigS6a; for Emax [95% CI]: normalized to CP-55,940; for EC50: read-out: EC50 [95% CI]
[1] = Log [Compound] (M) -13, individual replicate values

hCB1, sequence (P21554 whole entry): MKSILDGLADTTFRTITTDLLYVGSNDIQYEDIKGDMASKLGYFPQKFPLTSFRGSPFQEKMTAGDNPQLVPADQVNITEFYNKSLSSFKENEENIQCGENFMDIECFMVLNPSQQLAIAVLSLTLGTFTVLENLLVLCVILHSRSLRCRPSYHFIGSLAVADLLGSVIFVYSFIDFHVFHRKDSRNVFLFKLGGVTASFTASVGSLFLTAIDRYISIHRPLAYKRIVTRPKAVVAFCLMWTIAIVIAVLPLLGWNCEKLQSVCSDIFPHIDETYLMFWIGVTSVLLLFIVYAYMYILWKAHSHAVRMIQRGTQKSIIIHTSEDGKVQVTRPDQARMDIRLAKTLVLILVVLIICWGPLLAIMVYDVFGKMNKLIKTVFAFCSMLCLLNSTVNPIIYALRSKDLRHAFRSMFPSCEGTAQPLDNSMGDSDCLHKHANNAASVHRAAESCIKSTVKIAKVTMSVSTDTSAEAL
CB1 (rCB1), sequence (P20272 whole entry): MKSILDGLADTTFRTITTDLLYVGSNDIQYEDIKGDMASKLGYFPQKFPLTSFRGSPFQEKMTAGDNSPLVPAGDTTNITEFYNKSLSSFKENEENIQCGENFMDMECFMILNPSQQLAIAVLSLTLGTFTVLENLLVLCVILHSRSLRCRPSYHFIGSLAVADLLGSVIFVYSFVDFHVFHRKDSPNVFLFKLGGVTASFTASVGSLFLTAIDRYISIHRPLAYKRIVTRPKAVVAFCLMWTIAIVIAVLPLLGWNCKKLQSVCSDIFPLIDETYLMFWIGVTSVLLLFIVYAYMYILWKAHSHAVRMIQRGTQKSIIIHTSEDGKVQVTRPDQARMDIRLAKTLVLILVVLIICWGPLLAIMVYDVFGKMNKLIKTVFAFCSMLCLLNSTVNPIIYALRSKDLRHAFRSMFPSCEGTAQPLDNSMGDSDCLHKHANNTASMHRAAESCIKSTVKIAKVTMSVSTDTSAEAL

## Cn1nc(CNC(=O)C(C)(C)Oc2ccc(Cl)cc2)c2ccccc2c1=O [0450_26]
CB1 (rCB1)
  % 1H-CP-55,940 displacement (mean) from single point screen: 7.64%

## O=C(OCC1CSc2ccccc2O1)c1ccc(Oc2cccnc2)cc1 (stereo not shown) [compound 82778]
CB1 (rCB1)
  % 1H-CP-55,940 displacement (mean) from single point screen: 26.16%

## Cc1nn(CC2CC2)c(C)c1Cc1nc(Cc2ccc3c(c2)OCO3)no1 [7019_28]
CB1 (rCB1)
  % 1H-CP-55,940 displacement (mean) from single point screen: 36.27%

## Cc1nc(C2CC2)oc1-c1nc(Cc2ccc3c(c2)OCO3)no1 [compound 0682]
CB1 (rCB1)
  % 1H-CP-55,940 displacement (mean) from single point screen: -7.41%

## Cc1cc(C(=O)NC(c2ccc(Cl)cc2)c2ccn(C)n2)nn1-c1cccc(F)c1 (stereo not shown) [compound 17429]
CB1 (rCB1)
  % 1H-CP-55,940 displacement (mean) from single point screen: 23.12%

## CCOC(=O)CCC(OC(=O)c1nc(C)n(-c2ccccc2)n1)c1ccccc1 (stereo not shown) [compound 11070]
CB1 (rCB1)
  % 1H-CP-55,940 displacement (mean) from single point screen: 34.00%
  rep1_displacement: 33.8
  rep2_displacement: 28.7
  rep3_displacement: 39.6

## COC(=O)C(NC(=O)c1cc(C)n(-c2cccc(Cl)c2)n1)c1ccc(C(F)(F)F)cc1 (stereo not shown) [compound 14083]
CB1 (rCB1)
  % 1H-CP-55,940 displacement (mean) from single point screen: 24.29%

## COc1ccc(OC(C)(C)c2nnc(-c3nn(C)c(=O)c4ccccc34)o2)cc1 [compound 9753]
CB1 (rCB1)
  % 1H-CP-55,940 displacement (mean) from single point screen: 51.55%

## O=C(CCc1ccccc1)c1cn(C2(c3ccc(F)cc3)CCOCC2)nn1 [‘7337]
CB1 (rCB1)
  % 1H-CP-55,940 displacement (mean) from single point screen: 56.96%
  rep1_displacement: 60.4
  rep2_displacement: 55.9
  rep3_displacement: 54.6
CB1 (rCB1); single point at 10 µM, three replicates
  % radioligand displacement [S.D]: 57.0% [3.04]

## Cc1c(C(=O)NCC2CSc3ccccc3O2)cnn1-c1ccc(C(F)(F)F)cc1 (stereo not shown) [compound 6445]
CB1 (rCB1)
  % 1H-CP-55,940 displacement (mean) from single point screen: 46.11%

## CCCCCCC1(c2cc(O)c3c(c2)OC(C)(C)[C@@H]2CC[C@@H](O)C[C@@H]32)CCC1 [AM2389, reference compound]
CB1 (rCB1)
  rep1_displacement: 99.9
  rep2_displacement: 99.9
  rep3_displacement: 99.8

## CC(O)C1CCCN(C(=O)c2cc(Oc3cccc(Br)c3)ccn2)C1 (stereo not shown) [compound 74717]
CB1 (rCB1)
  % 1H-CP-55,940 displacement (mean) from single point screen: 17.22%
  rep1_displacement: 25.4
  rep2_displacement: 11.4
  rep3_displacement: 14.8

## O=C(Nc1cccc2ccsc12)c1ccn(-c2cccc(F)c2)n1 [1486_22]
CB1 (rCB1)
  % 1H-CP-55,940 displacement (mean) from single point screen: -3.59%

## Cc1cc(C(=O)N2CC3(CCC3)[C@H]2[C@H]2CCCO2)nn1-c1cccc(C(F)(F)F)c1 [‘1651]
hCB1; Log [Compound] (M) -4.22186
  Gi1 hCB1 response: 137.59
  Gi1 hCB1: 86.9769
  GoB hCB1: 103.232
hCB1; Log [Compound] (M) -4.63927
  Gi1 hCB1 response: 96.9225
  Gi1 hCB1: 76.9098
  GoB hCB1: 73.1818
hCB1; Log [Compound] (M) -5.47381
  Gi1 hCB1 response: 59.4112
  Gi1 hCB1: 51.5496
  GoB hCB1: 47.4476
hCB1; Log [Compound] (M) -5.89285
  Gi1 hCB1 response: 34.5455
  Gi1 hCB1: 27.4072
  GoB hCB1: 30.9928
hCB1; Log [Compound] (M) -6.31878
  Gi1 hCB1 response: 22.4595
  Gi1 hCB1: 15.521
  GoB hCB1: 20.7963
hCB1; Log [Compound] (M) -6.72585
  Gi1 hCB1 response: 13.9098
  Gi1 hCB1: 7.211
  GoB hCB1: 12.2902
hCB1; Log [Compound] (M) -7.14267
  Gi1 hCB1 response: 3.39
  Gi1 hCB1: 2.849
  GoB hCB1: 6.553
hCB1; Log [Compound] (M) -7.55284
  Gi1 hCB1 response: 4.644
  Gi1 hCB1: 1.862
  GoB hCB1: 3.478
hCB1; Log [Compound] (M) -8
  Gi1 hCB1 response: -4.488
  Gi1 hCB1: 1.7386
  GoB hCB1: 4.539
hCB1; Log [Compound] (M) -8.22186
  Gi1 hCB1 response: -3.346
  Gi1 hCB1: 1.384
  GoB hCB1: -0.5679
hCB1; Log [Compound] (M) -8.39794
  Gi1 hCB1 response: -8.628
  Gi1 hCB1: 3.142
  GoB hCB1: 1.554
hCB1; Log [Compound] (M) -8.68787
  Gi1 hCB1 response: -2.138
  Gi1 hCB1: 2.895
  GoB hCB1: -1.036
hCB1; Log [Compound] (M) -9.15521
  Gi1 hCB1 response: 13.7307
  Gi1 hCB1: 0.4282
  GoB hCB1: -2.079
hCB1; Log [Compound] (M) -9.61989
  Gi1 hCB1 response: 0.5704
  Gi1 hCB1: 2.402
  GoB hCB1: 0.2413
hCB1; Log [Compound] (M) -10.0969
  Gi1 hCB1 response: -10.7993
  Gi1 hCB1: 1.754
  GoB hCB1: 3.298
hCB1; Log [Compound] (M) -10.5529
  Gi1 hCB1 response: 1.622
  Gi1 hCB1: 4.329
  GoB hCB1: 1.32
hCB1; Log [Compound] (M) -11.0177
  Gi1 hCB1 response: 3.525
  Gi1 hCB1: 1.137
  GoB hCB1: 2.867
hCB1; Log [Compound] (M) -11.4949
  Gi1 hCB1 response: -1.466
  Gi1 hCB1: 1.492
  GoB hCB1: 0.4571
hCB1; Log [Compound] (M) -11.9208
  Gi1 hCB1 response: -11.3141
  Gi1 hCB1: 0.7057
  GoB hCB1: 3.784
hCB1; Log [Compound] (M) -12.3979
  Gi1 hCB1 response: -0.1682
  Gi1 hCB1: 3.419
  GoB hCB1: 6.338
hCB1; Log [Compound] (M) -12.8861
  Gi1 hCB1 response: 6.054
  Gi1 hCB1: 4.113
  GoB hCB1: 5.3306
hCB1; [1]
  Gi1 hCB1 response: -5.092 and 7.285
hCB1; Log [Compound] (M) -5.05788
  Gi1 hCB1: 64.2374
  GoB hCB1: 61.4566
hCB1; Log [Compound] (M) -13
  Gi1 hCB1: -0.9593 and 2.509
  GoB hCB1: 4.899 and 2.867
hCB1; hCB1 Gi1
  pEC50 [95% CI]: 5.5 [5.4 – 5.6]
  Emax [95% CI]: 89 [84 – 94]
  EC50: 3.03 µM
hCB1; hCB1 GoB
  pEC50 [95% CI]: 4.7 [4.1 – 5.4]
  Emax [95% CI]: 152 [94 – 208]
  EC50: 19.8 µM

## Cc1cc(C(=O)N2CC3(CCC3)[C@H]2[C@@H]2CCCO2)nn1-c1cccc(C(F)(F)F)c1 [‘5490]
hCB1; Log [Compound] (M) -4.22186
  Gi1 hCB1 response: 126.936
  Gi1 hCB1: 94.6851
  GoB hCB1: 96.1825
hCB1; Log [Compound] (M) -4.63927
  Gi1 hCB1 response: 115.566
  Gi1 hCB1: 84.6644
  GoB hCB1: 79.6378
hCB1; Log [Compound] (M) -5.47381
  Gi1 hCB1 response: 67.3119
  Gi1 hCB1: 56.452
  GoB hCB1: 52.9325
hCB1; Log [Compound] (M) -5.89285
  Gi1 hCB1 response: 63.8428
  Gi1 hCB1: 36.6417
  GoB hCB1: 40.0205
hCB1; Log [Compound] (M) -6.31878
  Gi1 hCB1 response: 33.6054
  Gi1 hCB1: 21.1018
  GoB hCB1: 23.8534
hCB1; Log [Compound] (M) -6.72585
  Gi1 hCB1 response: 15.275
  Gi1 hCB1: 10.5569
  GoB hCB1: 12.0564
hCB1; Log [Compound] (M) -7.14267
  Gi1 hCB1 response: 11.8954
  Gi1 hCB1: 5.469
  GoB hCB1: 9.719
hCB1; Log [Compound] (M) -7.55284
  Gi1 hCB1 response: 0.9509
  Gi1 hCB1: 7.104
  GoB hCB1: 4.971
hCB1; Log [Compound] (M) -8
  Gi1 hCB1 response: 4.733
  Gi1 hCB1: 4.236
  GoB hCB1: 4.953
hCB1; Log [Compound] (M) -8.22186
  Gi1 hCB1 response: -9.009
  Gi1 hCB1: 2.062
  GoB hCB1: 0.1334
hCB1; Log [Compound] (M) -8.39794
  Gi1 hCB1 response: 1.018
  Gi1 hCB1: 3.018
  GoB hCB1: 6.805
hCB1; Log [Compound] (M) -8.68787
  Gi1 hCB1 response: -1.578
  Gi1 hCB1: 2.71
  GoB hCB1: -2.061
hCB1; Log [Compound] (M) -9.15521
  Gi1 hCB1 response: -18.3419
  Gi1 hCB1: 2.078
  GoB hCB1: 0.565
hCB1; Log [Compound] (M) -9.61989
  Gi1 hCB1 response: 1.018
  Gi1 hCB1: 1.014
  GoB hCB1: 0.7988
hCB1; Log [Compound] (M) -10.0969
  Gi1 hCB1 response: 0.1452
  Gi1 hCB1: 3.712
  GoB hCB1: 2.4173
hCB1; Log [Compound] (M) -10.5529
  Gi1 hCB1 response: 4.89
  Gi1 hCB1: 2.602
  GoB hCB1: 1.752
hCB1; Log [Compound] (M) -11.0177
  Gi1 hCB1 response: 13.5964
  Gi1 hCB1: 1.5536
  GoB hCB1: 4.395
hCB1; Log [Compound] (M) -11.4949
  Gi1 hCB1 response: -2.608
  Gi1 hCB1: 3.327
  GoB hCB1: 4.324
hCB1; Log [Compound] (M) -11.9208
  Gi1 hCB1 response: 1.712
  Gi1 hCB1: 2.772
  GoB hCB1: 3.352
hCB1; Log [Compound] (M) -12.3979
  Gi1 hCB1 response: -1.959
  Gi1 hCB1: 2.124
  GoB hCB1: 2.741
hCB1; Log [Compound] (M) -12.8861
  Gi1 hCB1 response: -5.584
  Gi1 hCB1: 2.556
  GoB hCB1: 2.3094
hCB1; [1]
  Gi1 hCB1 response: 3.39 and 3.458
hCB1; Log [Compound] (M) -5.05788
  Gi1 hCB1: 72.2386
  GoB hCB1: 59.1548
hCB1; Log [Compound] (M) -13
  Gi1 hCB1: 3.496 and 2.864
  GoB hCB1: 2.327 and 3.748
hCB1; hCB1 Gi1
  pEC50 [95% CI]: 5.6 [5.5 – 5.6]
  Emax [95% CI]: 98 [94 – 102]
  EC50: 2.8 µM
hCB1; hCB1 GoB
  pEC50 [95% CI]: 5.2 [4.8 – 5.6]
  Emax [95% CI]: 118 [94 – 143]
  EC50: 6.73 µM
hCB1; hCB1 Gz
  pEC50 [95% CI]: 5.6 [5.2 – 6.1]
  EC50: 2.47 µM
